Like-named read-outs stand apart in the source and are kept apart here. One block for each molecule: values may come before it.
What was measured:
GSK-3β [1] = biological target: T1, GSK-3β (Homo sapiens, UniProt P49841); assay: ADP-Glo kinase luminescent assay, GSK-3β inhibition; type: biochemical; conditions: for Ligand-lipophilic efficiency (LiPE): LiPE = pIC50 – CLogP
[2] = tested on: GSK-3β mediated tau phosphorylation at pS396; assay: SH-SY5Y whole-cell lysate GSK-3β assay with human tau pS396 ELISA; type: biochemical; conditions: for effect on GSK-3β mediated tau hyperphosphorylation (pS396): 2, 10 and 50 μM, 2 h, 37 °C, lysate fortified with 0.25% GSK-3β, ELISA
[3] = tested on: panel of 41 human protein kinases; assay: Kinase selectivity screening, panel of 41 human protein kinases; type: biochemical; conditions: 5 μM
GSK-3β [4] = biological target: T1, GSK-3β; assay: GSK-3β kinetic studies; type: biochemical; conditions: 30 0 to 5 μM
SH-SY5Y cells = assay: Cytotoxicity assessment in SH-SY5Y cells; type: cell-based, human; conditions: 72 h
[5] = tested on: Aβ42 induced neurotoxicity in SH-SY5Y cells; assay: Anti-Aβ42 neurotoxicity assay in SH-SY5Y cells; type: cell-based, human
[6] = Parallel artificial membrane permeability assay; conditions: PAMPA; for Papp at 5 h, 20 μM: pH 7.4, PAMPA permeability classification, pH 7.4, 5 h
[7] = tested on: Aβ42 induced neurotoxicity in SH-SY5Y cells; conditions: cited from earlier work
GSK-3β [8] = conditions: read-out: GSK-3β inhibition IC50; cited from earlier work

T1 sequence (P49841 whole entry): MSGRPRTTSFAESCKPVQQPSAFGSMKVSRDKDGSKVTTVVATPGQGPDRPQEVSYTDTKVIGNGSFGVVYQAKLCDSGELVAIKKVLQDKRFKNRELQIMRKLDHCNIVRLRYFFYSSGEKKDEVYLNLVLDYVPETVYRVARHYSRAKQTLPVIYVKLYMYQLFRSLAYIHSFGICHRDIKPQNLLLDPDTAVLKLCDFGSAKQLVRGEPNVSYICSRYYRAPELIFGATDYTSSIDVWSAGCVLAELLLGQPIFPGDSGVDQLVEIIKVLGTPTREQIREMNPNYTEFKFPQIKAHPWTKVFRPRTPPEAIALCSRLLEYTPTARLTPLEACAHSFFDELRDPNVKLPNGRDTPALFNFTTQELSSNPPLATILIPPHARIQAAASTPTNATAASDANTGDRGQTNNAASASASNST

SMILES: O=c1cc(-c2ccc(O)c(O)c2)oc2c([C@@H]3O[C@H](CO)[C@@H](O)[C@H](O)[C@H]3O)c(O)cc(O)c12 [compound 3, orientin, reference compound]
IC50 (GSK-3β [1]; GSK-3β inhibition, IC50, as stated in text): > 5000 µM

SMILES: COc1ccc(-c2cc(=O)c3c(OC)c([C@@H]4O[C@H](C(=O)N[C@@H](C)C(F)(F)F)[C@@H](O)[C@H](O)[C@H]4O)c(OC)cc3o2)cc1OC [compound 30, (2S,3S,4R,5R,6S)-6-(2-(3,4-Dimethoxyphenyl)-5,7-dimethoxy-4-oxo-4H-chromen-6-yl)-3,4,5-trihydroxy-N-((S)-1,1,1-trifluoropropan-2-yl)tetrahydro-2H-pyran-2-carboxamide]
anti-tau effect relative to TDZD-8 ([2]; 10 μM, TDZD-8 at the same concentration): comparable to TDZD-8
effect on GSK-3β mediated tau hyperphosphorylation (pS396) [2]: effectively attenuated tau hyperphosphorylation in a dose-dependent manner
inhibition of 40 out of 41 kinases in the test panel [3]: marginal or weak inhibition
inhibition mode with respect to substrate GS2 (GSK-3β [4]; ATP 10 μM, GS2 8 to 66 μM): competed with the substrate GS2
inhibition mode with respect to ATP (GSK-3β [4]; GS2 17 μM, ATP 2 to 50 μM): no competition between ATP and 30
dose with no observable cytotoxicity (SH-SY5Y cells): ≤ 1000 µM
selectivity to GSK-3β versus GSK-3α (GSK-3β [1]; 5 μM, ratio of % inhibition): 12.3 fold
fold increased potency against GSK-3β compared to 9 (GSK-3β [1]; 30 compared to 9): approximately 9 fold
fold more potent against GSK-3β than epimer 31 (GSK-3β [1]; 30 compared to 31): about 4 fold
cell viability recovered (from 40% with Aβ42 alone) ([5]; pretreatment 1.25 to 20 μM for 1 h, then 10 μM Aβ42 for 72 h, dose-dependent): 100%
effective dose protecting SH-SY5Y cells from Aβ42 (morphology) ([5]; pretreatment, 10 μM Aβ42, 72 h): 10 μM
recovery at 5 h, 20 μM ([6]; pH 7.4): 30%
Papp at 5 h, 20 μM [6]: > 1.5 ×10⁻⁶ cm/s

SMILES: COc1ccc(-c2cc(=O)c3c(OC)c([C@@H]4O[C@H](C(=O)NC5CCCCC5)[C@@H](O)[C@H](O)[C@H]4O)c(OC)cc3o2)cc1OC [compound 17, (2S,3S,4R,5R,6S)-N-Cyclohexyl-6-(2-(3,4-dimethoxyphenyl)-5,7-dimethoxy-4-oxo-4H-chromen-6-yl)-3,4,5-trihydroxytetrahydro-2H-pyran-2-carboxamide]
effect on GSK-3β mediated tau hyperphosphorylation (pS396) [2]: effectively attenuated tau hyperphosphorylation in a dose-dependent manner
Papp at 5 h, 20 μM [6]: > 1.5 ×10⁻⁶ cm/s

SMILES: O=c1cc(-c2ccc(O)c(O)c2)oc2cc(O)c([C@@H]3O[C@H](CO)[C@@H](O)[C@H](O)[C@H]3O)c(O)c12 [compound 1, isoorientin]
effective dose protecting SH-SY5Y cells from Aβ42 (morphology) [7]: 200 μM
EC50 ([7]; read-out: neuroprotective potency, EC50, parent compound): 47 µM

SMILES: O=C([O-])[O-].[Li+].[Li+] [Lithium carbonate, lithium carbonate]
IC50 (GSK-3β [8]): 2000 µM

fold increase of potency against GSK-3β in comparison with 1 (GSK-3β [1]; ratio of IC50 values relative to isoorientin 1): 1.37 fold
SMILES: COC(=O)[C@H]1O[C@@H](c2c(OC)cc3oc(-c4ccc(OC)c(OC)c4)cc(=O)c3c2OC)[C@H](O)[C@@H](O)[C@@H]1O [compound 7, Methyl (2S,3S,4R,5R,6S)-6-(2-(3,4-Dimethoxyphenyl)-5,7-dimethoxy-4-oxo-4H-chromen-6-yl)-3,4,5-trihydroxytetrahydro-2H-pyran-2-carboxylate]

Ligand-lipophilic efficiency (LiPE) (GSK-3β [1]): ≥ 4
SMILES: COc1ccc(-c2cc(=O)c3c(OC)c([C@@H]4O[C@H](C(=O)N[C@H](C)C(F)(F)F)[C@@H](O)[C@H](O)[C@H]4O)c(OC)cc3o2)cc1OC [compound 31, (2S,3S,4R,5R,6S)-6-(2-(3,4-Dimethoxyphenyl)-5,7-dimethoxy-4-oxo-4H-chromen-6-yl)-3,4,5-trihydroxy-N-((R)-1,1,1-trifluoropropan-2-yl)tetrahydro-2H-pyran-2-carboxamide]

SMILES: COc1ccc(-c2cc(=O)c3c(OC)c([C@@H]4O[C@H](C(=O)NC(C)C)[C@@H](O)[C@H](O)[C@H]4O)c(OC)cc3o2)cc1OC [compound 9, (2S,3S,4R,5R,6S)-6-(2-(3,4-Dimethoxyphenyl)-5,7-dimethoxy-4-oxo-4H-chromen-6-yl)-3,4,5-trihydroxy-N-isopropyltetrahydro-2H-pyran-2-carboxamide]
effect on GSK-3β mediated tau hyperphosphorylation (pS396) [2]: effectively attenuated tau hyperphosphorylation in a dose-dependent manner
Ligand-lipophilic efficiency (LiPE) (GSK-3β [1]): ≥ 4
Papp at 5 h, 20 μM [6]: > 1.5 ×10⁻⁶ cm/s

SMILES: COc1ccc(-c2cc(=O)c3c(OC)c([C@@H]4O[C@H](C(=O)NCc5ccccc5)[C@@H](O)[C@H](O)[C@H]4O)c(OC)cc3o2)cc1OC [compound 21, (2S,3S,4R,5R,6S)-6-(2-(3,4-Dimethoxyphenyl)-5,7-dimethoxy-4-oxo-4H-chromen-6-yl)-3,4,5-trihydroxy-N-benzyltetrahydro-2H-pyran-2-carboxamide]
effect on GSK-3β mediated tau hyperphosphorylation (pS396) [2]: effectively attenuated tau hyperphosphorylation in a dose-dependent manner
Papp at 5 h, 20 μM [6]: 1 to 1.5 ×10⁻⁶ cm/s

From PMC7368552 (ACS chemical neuroscience, 2018)
